Settings: Liquid; for viscosity: Vibrating wire viscometry; for mass density: vibrating-wire apparatus

CC(C)CCCC(C)CCCC(C)CCCCC(C)CCCC(C)CCCC(C)C (centres undefined) [2,6,10,15,19,23-hexamethyltetracosane]
Settings | mass density [kg/m3] | viscosity [mPa·s]
303.18 K, 1070 kPa | 802 | 22
303.18 K, 5300 kPa | 803.5 | 24.2
303.18 K, 5740 kPa | 804.4 | 24.4
303.18 K, 15580 kPa | 806.9 | 30.3
303.18 K, 25530 kPa | 813.9 | 36.9
303.18 K, 35790 kPa | 826.5 | 44.3
303.18 K, 45770 kPa | 825.1 | 54.6
303.18 K, 55770 kPa | 825.9 | 66.3
348.13 K, 5270 kPa | 776.9 | 5.59
348.13 K, 5290 kPa | 777 | 5.6
348.13 K, 25490 kPa | 790.6 | 7.79
348.13 K, 56280 kPa | 807.7 | 12.3
348.13 K, 85860 kPa | 821.2 | 18.4
348.13 K, 115830 kPa | 832.6 | 26.9
348.13 K, 145930 kPa | 844.3 | 38.7
348.13 K, 175120 kPa | 843.2 | 55.6
398.15 K, 5160 kPa | 746.3 | 2.17
398.15 K, 5230 kPa | 746.4 | 2.17
398.15 K, 25310 kPa | 763.3 | 2.89
398.15 K, 56100 kPa | 783.5 | 4.24
398.15 K, 85890 kPa | 799.5 | 5.88
398.15 K, 115450 kPa | 812.6 | 7.93
398.15 K, 145820 kPa | 824.7 | 10.6
398.15 K, 176100 kPa | 835.4 | 13.8
448.25 K, 5580 kPa | 716.3 | 1.17
448.25 K, 5730 kPa | 716.5 | 1.18
448.25 K, 25470 kPa | 736.8 | 1.54
448.25 K, 55510 kPa | 759.9 | 2.17
448.25 K, 85620 kPa | 778.7 | 2.89
448.25 K, 115510 kPa | 793.3 | 3.76
448.25 K, 145580 kPa | 806.4 | 4.78
448.25 K, 176050 kPa | 818.2 | 5.99
